Like-named read-outs stand apart in the source and are kept apart here.

Results on 7 compounds are retold here after patent US4062964A, “Antifertility-combinations” (Ciba-Geigy Corporation, priority 1976, dated 1977).

In assay [1] the test system is pregnant rats. The experiment in a line: Resorption of embryos by s.c. prostaglandins in pregnant rats. It is filed as in vivo, rat. The conditions noted are these: for Fetuses / Resorptions / Total Implants: days 4-7. The protocol:
(§1) The efficacy of the compositions according to the invention is demonstrable in animal tests, using advantageously mammals, such as rats, hamsters or baboons, as test objects. Thus, for example, adult female rats weighing 190-250 grams are housed in a "reverse room" as described in Contraception 3, 347 (1971), with the exception that the animals have 14 hours of light between 5 P.M. and 7 A.M., and 10 hours of darkness from 7 A.M. to 5 P.M. They are placed with adult male rats from 10 A.M. to 2 P.M. (i.e. "their midnight" ± 2 hours) following which vaginal smears are obtained.
(§2) Said antifertility compounds may be administered orally, e.g. in suspension with the excipient compraising 3% (by weight) of carboxymethylcellulose, 1.05% methylcellulose, 0.8% sodium chloride, 0.1% polysorbate 80 and 0.002% thimerosal in water, as a single dose on day 5 of pregnancy (i.e. the day after implantation unless otherwise specified). Prostaglandins may be injected subcutaneously twice (9 A.M. and 3 P.M.) on days 4-7 in a conventional 0.1M phosphate buffer at pH = 7.45. Aminoglutethimide phosphate can also be administered in aqueous solution orally, subcutaneously, intraperitoneally or intravenously. The rats are sacrificed on day 10 or 11 of pregnancy and the uterus is examined for living and dead fetuses and implantation sites. The terms "abortion" and "resorption" are used interchangeably because by day 10 or 11 the uterine scars resulting from either event are indistinguishable by gross inspection.
However, when the compounds were injected twice daily (9 a.m. and 3 p.m.) in adequate doses on days 4-7 of gestation, implantation occured at the normal time but this was then followed by resorption of the embryos. […]

Assay [2] deals with pregnant Lakeview hamsters. The experiment in a line: Antifertility effect (percent of litter living) in pregnant hamsters, AGT p.o. and TPF s.c. In kind it is in vivo, hamster. As to the method: Said active ingredients are administered in admixture with the following excipients:
AGT + 3% corn starch + 5% polyethylene glycol 400 + 1 drop of polysorbate 80 per 10 ml of distilled water.
TPF 10 mg per 0.1 ml of ethanol, which solution is diluted with the buffer prepared from 19 ml of 0.2M aqueous monosodium phosphate and 81 ml of 0.2M aqueous disodium phosphate, corrected with the latter to the pH = 7.4.
(§3) Said compositions are administered to pregnant Lakeview hamsters arriving at day 1 postcoitus, which are maintained in a day-night reversed room (11 A.M. to 11 P.M.). Food and water is given ad libitum. Six hamsters per group are used (3 per cage) and each test is carried out with a control group receiving said excipients only. The orally administered AGT is given for 3 consecutive days starting on day 3 postcoitus, at a rate of 5 ml/kg body weight, and these animals are sacrificed on day 10 to 12 postcoitus. The subcutaneously administered TPF is given once on day 5 postcoitus only, at a volume of 0.2 ml per animal, and these animals are sacrificed on day 8 postcoitus. The uterus of each animal is inspected and implantation sites are counted and recorded according to viable or resorbed fetuses. Percent inhibition is determined by comparison of treated groups over the control group.

For another assay, the system named is progesterone secretion. The conditions noted are these: pregnant and non-pregnant animals and human beings, background; cited from earlier work.
Assay [3] deals with conversion of cholesterol to pregnenolone. The note with it: background; cited from earlier work.
In assay [4] the test system is pregnant rats. The experiment in a line: Combined treatment AGP and PGF2α, resorption of fetuses in pregnant rats. In kind it is in vivo, rat. The protocol:
as §1, §2

Assay [5] relates to pregnant rats. The experiment in a line: Abortifacient activity of AGP in pregnant rats (3 doses on day 9; large single or daily oral doses). It is filed as in vivo, rat. The protocol: as §1, §2
The subject of another assay is progesterone levels. The experiment in a line: Progesterone levels in rats after aminoglutethimide phosphate. In kind it is in vivo, rat. The conditions noted are these: large single or daily oral doses.
Another assay deals with pregnant hamsters. The experiment in a line: Antifertility ED50 in pregnant hamsters. It is filed as in vivo, hamster. The conditions noted are these: for ED50: Mesocricetus auratus. The protocol: as §3
For the next assay, the system named is rats. The experiment in a line: Activity of TPF in rats. The conditions noted are these: rat, in vivo.
A further assay concerns rabbits. The experiment in a line: Activity of TPF in rabbits. The conditions noted are these: rabbit, in vivo.
Setting [6] is: 100 mg/kg × 3 on day 9, i.p., 10 rats.
The mark [7] stands for this setting: 100 mg/kg × 3 on day 9, i.v., 3 rats.
Where [8] appears, read: 100 mg/kg × 3 on day 9, p.o., 5 rats.
Setting [9] is: sc, pregnant hamsters, approximative, read-out: ED50 s.c. for antifertility effects.

Regarding `CCCCC[C@H](O)/C=C/[C@H]1[C@H](O)CC(=O)[C@@H]1CCCCCCC(=O)O` [PGE1], in the assay on pregnant rats [1] (200 μg/rat s.c. × 2 daily), the Fetuses is recorded as 10.8 ± 2.7, the Resorptions was 0 and the “Total Implants” value was found to be 10.8 ± 2.7. For the same compound, in the assay with pregnant rats [1] (400 μg/rat s.c. × 2 daily), the Fetuses came to 10.6 ± 2.7, the Resorptions worked out at 0 and the “Total Implants” value was found to be 10.6 ± 2.7. Further, in the assay on pregnant rats [1] (800 μg/rat s.c. × 2 daily), the Fetuses stood at 0, the Resorptions is reported as 7.0 ± 1.9 and the “Total Implants” value was determined as 7.0 ± 1.9.

As for `CC[C@]1(c2ccc(N)cc2)CCC(=O)NC1=O.CC[C@]1(c2ccc(N)cc2)CCC(=O)NC1=O.O.O=C(O)C(O)C(O)C(=O)O.O=C(O)C(O)C(O)C(=O)O` [AGT, d-aminoglutethimide d-tartrate hemihydrate], the “effective as antifertility agent” value in assay [2] (500 mg/kg/p.o.) is given as 100%. The “PERCENT OF LITTER LIVING” value in assay [2] (AGT 100 mg/kg p.o. day 3-5, TPF 0) was 90%; in assay [2] (AGT 250 mg/kg p.o. day 3-5, TPF 0), 68%; in [2] (AGT 500 mg/kg p.o. day 3-5, TPF 0) it was 0%.

As for `CCC1(c2ccc(N)cc2)CCC(=O)NC1=O` (stereo not shown) [aminoglutethimide], the progesterone secretion entry with progesterone secretion is recorded as “inhibits progesterone secretion”. In addition, the “conversion of cholesterol to pregnenolone in the steroid pathway” value in [3] is “blocks the conversion of cholesterol to pregnenolone”.

In the case of `CCC1(c2ccc(N)cc2)CCC(=O)NC1=O` (stereo not shown) [AGP, aminoglutethimide phosphate], the “resorption of fetuses in rats” value in the assay with pregnant rats [4] (AGP 30 mg/kg s.c. days 3-5 of pregnancy) is listed as “did not induce resorption of fetuses”. For the same compound, the Fetuses with pregnant rats [4] (AGP 30 mg/kg s.c., days 3-5) is listed as 12.2 ± 1.8; in the assay on pregnant rats [5] (setting [6]), 4.4 ± 2.2; in the assay on pregnant rats [5] (setting [7]) it was 4.3 ± 4.3; with pregnant rats [5] (setting [8]) it was 13.8 ± 0.9. In addition, the Resorptions with pregnant rats [4] (AGP 30 mg/kg s.c., days 3-5) amounted to 1.6 ± 1.1; in the assay on pregnant rats [5] (setting [6]) it was 8.9 ± 2.0; with pregnant rats [5] (setting [7]) it was 10.3 ± 4.7; in the assay with pregnant rats [5] (setting [8]) it was 0.4 ± 0.4. For the same compound, the “Total Implants” value with pregnant rats [4] (AGP 30 mg/kg s.c., days 3-5) amounted to 13.8 ± 1.0; in the assay with pregnant rats [5] (setting [6]) it was 13.3 ± 0.6; in the assay with pregnant rats [5] (setting [7]), 14.7 ± 0.7; with pregnant rats [5] (setting [8]) it was 14.2 ± 0.7. The “abortifacient on day 9” value in the assay with pregnant rats [5] (given every 8 hours, i.v. versus p.o., rats) is given as “abortifacient on day 9 when given every 8 hours i.v., but not p.o”. Further, in the assay on pregnant rats [5] (large single or daily oral doses, rats), the abortifacient activity result was “very resistant to the abortifacient activity”. Further, in the assay on progesterone levels, the “decrease of progesterone levels” value is on record as “more than 70%”.

One may read the ED50 as the dose at which the effect has come halfway, by size or by number of responders. Consider `CCCCC[C@H](O)/C=C/[C@H]1[C@H](O)CC(=O)[C@@H]1C/C=C\CCCC(=O)O` [PGE2], for which, in the assay with pregnant rats [1] (200 μg/rat s.c. × 2 daily), the Fetuses came to 10.6 ± 2.8, the Resorptions is on record as 0 and the “Total Implants” value is 10.6 ± 2.8. In addition, in the assay on pregnant rats [1] (400 μg/rat s.c. × 2 daily), the Fetuses is reported as 6.6 ± 2.8, the Resorptions turned out to be 0 and the “Total Implants” value came to 6.6 ± 2.8. In the assay on pregnant rats [1] (800 μg/rat s.c. × 2 daily), the Fetuses was found to be 0, the Resorptions was 5.6 ± 2.6 and the “Total Implants” value was determined as 5.6 ± 2.6. For the same compound, the ED50 with pregnant hamsters (setting [9]) is 2 mg/kg.

With `CCCCC[C@H](O)/C=C/[C@@H]1[C@@H](C/C=C\CCCC(=O)O)[C@@H](O)C[C@H]1O` [PGF2α, prostaglandin F2α], the Fetuses in the assay with pregnant rats [1] (100 μg/rat s.c. × 2 daily) turned out to be 14.2 ± 0.7; with pregnant rats [1] (200 μg/rat s.c. × 2 daily), 14.4 ± 0.2; in the assay with pregnant rats [1] (400 μg/rat s.c. × 2 daily), 0; in the assay with pregnant rats [4] (PGF2α 1 mg/kg s.c., day 5) it was 15.4 ± 0.6. Further, the Resorptions with pregnant rats [1] (100 μg/rat s.c. × 2 daily) came out at 0; in the assay on pregnant rats [1] (200 μg/rat s.c. × 2 daily) it was 0.2 ± 0.2; with pregnant rats [1] (400 μg/rat s.c. × 2 daily), 9.6 ± 2.6; with pregnant rats [4] (PGF2α 1 mg/kg s.c., day 5) it was 0. In addition, the “Total Implants” value in the assay on pregnant rats [1] (100 μg/rat s.c. × 2 daily) is recorded as 14.2 ± 0.7; in the assay on pregnant rats [1] (200 μg/rat s.c. × 2 daily) it was 14.6 ± 0.2; in the assay on pregnant rats [1] (400 μg/rat s.c. × 2 daily) it was 9.6 ± 2.6; with pregnant rats [4] (PGF2α 1 mg/kg s.c., day 5) it was 15.4 ± 0.6. For the same compound, the “relative activity versus PGE1 and PGE2” value with pregnant rats [1] (s.c. twice daily, days 4-7, rats) was “about twice as active as PGE1 and PGE2”. For the same compound, the ED50 in the assay on pregnant hamsters (setting [9]) stood at 0.1 mg/kg; with pregnant hamsters (oral, pregnant hamsters, approximative, read-out: ED50 oral for antifertility effects) it was 7.5 mg/kg. For the same compound, the “resorption of fetuses in rats” value in the assay on pregnant rats [4] (PGF2α 1 mg/kg s.c. on day 5 of pregnancy) was “did not induce resorption of fetuses”.

For `O=C(O)CCCCCCC1OCC(O)C1/C=C/C(O)COc1cccc(C(F)(F)F)c1` (stereo not drawn) [TPF, 7-[3α-(3β-hydroxy-4-(m-trifluoromethylphenoxy)-1-trans-butenyl)-4β-hydroxy-tetrahydro-2β-furyl]-heptanoic acid], the “oral potency relative to PGF2α” value in the assay on pregnant hamsters (oral, more potent than PGF2α) is recorded as 10-20 times. In the assay on pregnant hamsters (oral, pregnant hamsters), the oral antifertility effectiveness entry is on record as “orally effective”. The “ED50 oral for antifertility effects” value with pregnant hamsters (oral, pregnant hamsters, approximative) is listed as 0.31 mg/kg. For the same compound, in the assay with pregnant hamsters (s.c., pregnant hamsters, approximative), the “ED50 s.c. for antifertility effects” value turned out to be 0.1 mg/kg. The activity in rats result in the assay with rats is recorded as “active in rats”. Further, in [2] (25 μg/animal/s.c.), the “effective as antifertility agent” value came to 64%. Further, the “PERCENT OF LITTER LIVING” value was 98% in assay [2] (TPF 5 μg s.c. day 5, AGT 0 mg); 70% in assay [2] (TPF 10 μg s.c. day 5, AGT 0 mg); 36% in assay [2] (TPF 25 μg s.c. day 5, AGT 0 mg). The activity in rabbits result in the assay with rabbits was “active in rats and rabbits”.
